Data as given in patent US20050090659A1, “Phospholepid derivatives of nucleosides as antitumaorl medicaments” (priority 2001, published 2005).
Where two headings read alike, the source gives them in different places. Marks after values point to notes of the source that are not given here. One block for each compound: values may come before it.

Key:
MethA fibrosarcoma = conditions: for percent inhibition relative to the control values of group 1, Day 21 / percent inhibition relative to the control values of group 1, Day 28: + means increase; for Effect on tumor growth (antitumoral / antiproliferative), in words: MethA fibrosarcoma model, 3-100 mg/kg once weekly i.p.; for Tumor volume Day 21 / Tumor volume Day 28: median of 10 animals, once weekly i.p.
Source text: The substances, 5-fluoro-2′-deoxyuridine-5′-phosphoric acid-(3-dodecyl-thio-2-decyloxy)propylester (substance A) and 3′-azido-3′-deoxythymidine-5′-phosphoric acid-(3-dodecylthio-2-decyloxy)propylester (substance B), have been tested in the murine MethA fibrosarcoma model, amongst other tests, under in-vivo conditions for their antitumoral or antiproliferative potency and efficacy.
MethA fibrosarcoma cells were propagated intraperitoneal (i.p.) in the form of ascites tumor in female CB6F1 mice (Charles River Laboratories, Sulzfeld, Germany). For the entire duration of the tests, the animals were kept in macrolon cages under laminar flow conditions at 23±1° C. room temperature, 55±15% relative humidity and a light-dark cycle of 12 h each. […] Prior to enrolment in the corresponding experiment, the animals were accustomed to the conditions for at least 14 days. The animals were routinely checked for infection by murine viruses.
To test the active substance, female CB6F1 mice 6-8 weeks of age were inoculated with 1×10^5 MethA fibrosarcoma cells per mouse by the subcutaneous (s.c.) route. The tumor growth in control group mice and in animals of the verum-treated groups was determined regularly in weekly intervals by measuring the two perpendicular tumor diameters as described in Hermann D. B. J., Pahlke W., Opitz H.-G. and Bicker U., Cancer Treatment Reviews, 17, 247-252, 1990. The test substances were tested in a dose-dependent fashion with once weekly i.p. administration in phosphate-buffered saline (PBS). Animals in the control group were treated with placebo (PBS).
Tumor volumes on days 21 and 28 after tumor cell inoculation are expressed as medians of 10 animals per experimental group.

K562 cells = test: Proliferation experiments with combinations, WST-1 colorimetry; format: cell-based; conditions: for reduction of the IC50 value of the combination partner in combination with substance A: substance A at a concentration just short of an antiproliferative effect
Method: The effect of the combination containing substance A and cisplatin, doxorubicin, vincristine, and camptothecin, was tested in proliferation experiments. For this purpose, substance A was dissolved in medium at a stock concentration of 1 mg/ml. The other substances were dissolved in water or DMSO (dimethylsulfoxide) at the same stock concentration of 1 mg/ml. The series' of experiments were performed in 96-well plates. […] Cells in the absence of substance and pure medium served as the controls. The in-vitro activity of the test substances was determined by colorimetry on the basis of cleavage of the tetrazolium salt, WST-1 (Roche Molecular Biochemicals, Mannheim, Del.). For this purpose, the cultures were incubated with 10 μl WST for 4 hours. Then the plates were shaken gently. The optical density was measured with an ELISA reader (Spectra MAX 340PC, Molecular Devices, Ismaning, Del.) at wavelengths from 440 to 650 nm. The IC50 value was determined for each substance. In the case of the combination, one of the substances was used at a concentration just short of showing an antiproliferative effect and the IC50 value of the combination was then determined after the addition of the second substance.

[1] = for Blood levels: HB / Blood levels: HCT / Blood levels: MCH / Blood levels: MCHC / Blood levels: MCV / Blood levels: PLT / Blood levels: RBC / Blood levels: WBC / Organ weight: Brain / Organ weight: Colon / Organ weight: Heart / Organ weight: Intestines / Organ weight: Kidney / Organ weight: Liver / Organ weight: Lungs / Organ weight: Ovaries / Organ weight: Spleen / Organ weight: Stomach / Bone marrow cell count: mean ± SEM; for Bone marrow cell count: 10 animals; for Body weight: median
Method: Substance A was tested in female NMRI mice for its tolerability. The animals were kept under the same conditions as described in Example 1.
Female NMRI mice, 6-8 weeks of age (Charles River Laboratories, Sulzfeld, Germany), were treated with 1 or 1.5 g/kg of substance A administered by an esophageal probe. Subsequently, the following toxicity parameters were determined: • Blood counts, including white blood cell concentration (WBC), red blood cells concentration (RBC), hemoglobin (HB), hematocrit (HCT), platelet concentration (PLT), mean corpuscular volume (MCV), mean corpuscular hemoglobin (MCH) and mean corpuscular hemoglobin concentration (MCHC), • Bone marrow cell count, i.e. number of bone marrow cells per femur (M/femur), • Body weight • Organ weights, including weight of colon, heart, brain, intestines, lungs, liver, stomach, spleen, kidneys, ovaries.

[2] = 3 mg/kg/application, day 21 after tumor cell inoculation
[3] = partner at a concentration just short of an antiproliferative effect
[4] = very high dosage (1 or 1.5 g/kg)

SMILES: CCCCCCCCCCCCSCC(COP(=O)(O)OC[C@H]1O[C@@H](n2cc(F)c(=O)[nH]c2=O)C[C@@H]1O)OCCCCCCCCCC (some centres unmarked) [Substance A, 5-fluoro-2′-deoxyuridine-5′-phosphoric acid-(3-dodecyl-thio-2-decyloxy)propylester]
percent inhibition relative to the control values of group 1, Day 21 (MethA fibrosarcoma; 3 mg/kg/application, day 21): 59.1%
percent inhibition relative to the control values of group 1, Day 28 (MethA fibrosarcoma; 3 mg/kg/application): 57.6%
percent inhibition relative to the control values of group 1, Day 21 (MethA fibrosarcoma; 30 mg/kg/application, day 21): 89.7%
percent inhibition relative to the control values of group 1, Day 28 (MethA fibrosarcoma; 30 mg/kg/application): 87.2%
percent inhibition relative to the control values of group 1, Day 21 (MethA fibrosarcoma; 100 mg/kg/application, day 21): 91.1%
percent inhibition relative to the control values of group 1, Day 28 (MethA fibrosarcoma; 100 mg/kg/application): 92.2%
Effect on tumor growth (antitumoral / antiproliferative), in words (MethA fibrosarcoma): inhibits tumor growth highly significantly and in a dose- and time-dependent fashion
Tumor volume Day 21 (MethA fibrosarcoma; [2]): 1.649 mm^3
Tumor volume Day 28 (MethA fibrosarcoma; 3 mg/kg/application): 4.163 mm^3
Tumor volume Day 21 (MethA fibrosarcoma; 30 mg/kg/application, day 21): 416 mm^3
Tumor volume Day 28 (MethA fibrosarcoma; 30 mg/kg/application): 1.254 mm^3
Tumor volume Day 21 (MethA fibrosarcoma; 100 mg/kg/application, day 21): 357 mm^3
Tumor volume Day 28 (MethA fibrosarcoma; 100 mg/kg/application): 762 mm^3
reduction of the IC50 value of substance A in combination with camptothecin (K562 cells; [3]): approx. 40%
reduction of the IC50 value of substance A in combination with cisplatin (K562 cells; [3]): 25%
reduction of the IC50 value of substance A in combination with doxorubicin (K562 cells; [3]): approx. 30%
reduction of the IC50 value of substance A in combination with vincristine (K562 cells; [3]): approx. 60%
Blood levels: HB ([1]; 1 g/kg): 17850 ± 390 µg/mL
Blood levels: HCT ([1]; 1 g/kg): 47.93 ± 1.16%
Blood levels: MCH ([1]; 1 g/kg): 19.28 ± 0.22 pg
Blood levels: MCHC ([1]; 1 g/kg): 37.29 ± 0.44 g/dL
Blood levels: MCV ([1]; 1 g/kg): 51.50 ± 0.58 fL
Blood levels: PLT ([1]; 1 g/kg): 1153 ± 41 k/μl
Blood levels: RBC ([1]; 1 g/kg): 9.31 ± 0.23 M/μl
Blood levels: WBC ([1]; 1 g/kg): 14.34 ± 2.18 k/μl
Organ weight: Brain ([1]; 1 g/kg): 399 ± 8 g
Organ weight: Colon ([1]; 1 g/kg): 373 ± 15 g
Organ weight: Heart ([1]; 1 g/kg): 133 ± 4 g
Organ weight: Intestines ([1]; 1 g/kg): 1.622 ± 61 g
Organ weight: Kidney ([1]; 1 g/kg): 361 ± 17 g
Organ weight: Liver ([1]; 1 g/kg): 1.602 ± 42 g
Organ weight: Lungs ([1]; 1 g/kg): 226 ± 9 g
Organ weight: Ovaries ([1]; 1 g/kg): 183 ± 17 g
Organ weight: Spleen ([1]; 1 g/kg): 125 ± 9 g
Organ weight: Stomach ([1]; 1 g/kg): 232 ± 7 g
Bone marrow cell count ([1]; 1 g/kg): 28.48 ± 0.86 M/Femur
Body weight ([1]; 1 g/kg): 28.7^c g
Tolerability parameters compared to the placebo-treated control group, in words ([1]; 1 or 1.5 g/kg of body weight): no significant reduction in the tolerability parameters
Blood levels: HB ([1]; 1.5 g/kg): 15790 ± 920 µg/mL
Blood levels: HCT ([1]; 1.5 g/kg): 43.42 ± 2.77%
Blood levels: MCH ([1]; 1.5 g/kg): 19.09 ± 0.37 pg
Blood levels: MCHC ([1]; 1.5 g/kg): 36.53 ± 0.38 g/dL
Blood levels: MCV ([1]; 1.5 g/kg): 52.09 ± 0.81 fL
Blood levels: PLT ([1]; 1.5 g/kg): 1431 ± 172 k/μl
Blood levels: RBC ([1]; 1.5 g/kg): 8.34 ± 0.56 M/μl
Blood levels: WBC ([1]; 1.5 g/kg): 16.97 ± 6.05 k/μl
Organ weight: Brain ([1]; 1.5 g/kg): 387 ± 18 g
Organ weight: Colon ([1]; 1.5 g/kg): 392 ± 29 g
Organ weight: Heart ([1]; 1.5 g/kg): 126 ± 9 g
Organ weight: Intestines ([1]; 1.5 g/kg): 1.807 ± 112 g
Organ weight: Kidney ([1]; 1.5 g/kg): 351 ± 26 g
Organ weight: Liver ([1]; 1.5 g/kg): 1.739 ± 81 g
Organ weight: Lungs ([1]; 1.5 g/kg): 206 ± 9 g
Organ weight: Ovaries ([1]; 1.5 g/kg): 203 ± 33 g
Organ weight: Spleen ([1]; 1.5 g/kg): 204 ± 26 g
Organ weight: Stomach ([1]; 1.5 g/kg): 232 ± 16 g
Bone marrow cell count ([1]; 1.5 g/kg): 31.44 ± 1.51 M/Femur
Body weight ([1]; 1.5 g/kg): 27.9^c g
Bone marrow suppression, hematotoxicity or unspecific-toxic organ intolerance, in words [1, 4]: no evidence of bone marrow suppression, hematotoxicity or unspecific-toxic organ intolerance
Unspecific-toxic properties under in-vivo conditions, in words [1, 4]: no unspecific-toxic properties

SMILES: CCCCCCCCCCCCSCC(COP(=O)(O)OC[C@H]1O[C@@H](n2cc(C)c(=O)[nH]c2=O)C[C@@H]1N=[N+]=[N-])OCCCCCCCCCC (some centres unmarked) [Substance B, 3′-azido-3′-deoxythymidine-5′-phosphoric acid-(3-dodecylthio-2-decyloxy)propylester, reference compound]
percent inhibition relative to the control values of group 1, Day 21 (MethA fibrosarcoma; 3 mg/kg/application, day 21): 0.8%
percent inhibition relative to the control values of group 1, Day 28 (MethA fibrosarcoma; 3 mg/kg/application): +4.1%
percent inhibition relative to the control values of group 1, Day 21 (MethA fibrosarcoma; 30 mg/kg/application, day 21): +1.7%
percent inhibition relative to the control values of group 1, Day 28 (MethA fibrosarcoma; 30 mg/kg/application): +1.4%
percent inhibition relative to the control values of group 1, Day 21 (MethA fibrosarcoma; 100 mg/kg/application, day 21): 0.3%
percent inhibition relative to the control values of group 1, Day 28 (MethA fibrosarcoma; 100 mg/kg/application): +2.8%
Effect on tumor growth (antitumoral / antiproliferative), in words (MethA fibrosarcoma): no antitumoral or antiproliferative properties
Tumor volume Day 21 (MethA fibrosarcoma; [2]): 3.998 mm^3
Tumor volume Day 28 (MethA fibrosarcoma; 3 mg/kg/application): 10.228 mm^3
Tumor volume Day 21 (MethA fibrosarcoma; 30 mg/kg/application, day 21): 4.102 mm^3
Tumor volume Day 28 (MethA fibrosarcoma; 30 mg/kg/application): 9.963 mm^3
Tumor volume Day 21 (MethA fibrosarcoma; 100 mg/kg/application, day 21): 4.021 mm^3
Tumor volume Day 28 (MethA fibrosarcoma; 100 mg/kg/application): 10.098 mm^3

SMILES: CC[C@@]1(O)C(=O)OCc2c1cc1n(c2=O)Cc2cc3ccccc3nc2-1 [camptothecin, reference compound]
reduction of the IC50 value of the combination partner in combination with substance A (K562 cells): approx. 90%

SMILES: N.N.[Cl][Pt][Cl] [cisplatin, reference compound]
reduction of the IC50 value of the combination partner in combination with substance A (K562 cells): 50%

reduction of the IC50 value of the combination partner in combination with substance A (K562 cells): approx. 50%
SMILES: COc1cccc2c1C(=O)c1c(O)c3c(c(O)c1C2=O)C[C@@](O)(C(=O)CO)C[C@@H]3O[C@H]1C[C@H](N)[C@H](O)[C@H](C)O1 [doxorubicin, reference compound]

reduction of the IC50 value of the combination partner in combination with substance A (K562 cells): approx. 65%
SMILES: CC[C@]1(O)C[C@H]2CN(CCc3c([nH]c4ccccc34)[C@@](C(=O)OC)(c3cc4c(cc3OC)N(C=O)[C@H]3[C@@](O)(C(=O)OC)[C@H](OC(C)=O)[C@]5(CC)C=CCN6CC[C@]43[C@@H]65)C2)C1 [vincristine, reference compound]
